Patent publication US8017612B2, “Piperazine compound and use thereof as a HCV polymerase inhibitor” (priority 2006, dated 2011)
pIC50: −log10 of the molar value.

What was measured:
[1] = biological target: T1, HCV polymerase (NS5B) type 1a (Hepatitis C virus genotype 1a, UniProt P26664); test: Assay of enzyme (HCV polymerase) inhibitory activity, type 1a enzyme; assay type: biochemical, HCV type 1a (cloned from the blood of patients); conditions: HCV polymerase inhibitory activity (IC50), 1a, type 1a enzyme 1.5 μg/ml, 25° C., 60 min
T1 construct: made in house; host or cells: Escherichia coli (by the 'similar method' of the 1b enzyme)
In short: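 Patient-derived type 1a NS5B (C-terminal 47-aa deletion, His-tagged, E. coli-expressed) at 1.5 μg/ml was reacted with 5 μg/ml 3′UTR-containing substrate RNA, 50 μM ATP/GTP/CTP, 2 μM UTP plus [3H]UTP, pH 7.5, 25° C for 60 min. TCA-precipitated RNA radioactivity was counted; IC50 from ± compound.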

[2] = biological target: T2, HCV polymerase (NS5B) type 1b (Hepatitis C virus genotype 1b, UniProt P26663); test: Assay of enzyme (HCV polymerase) inhibitory activity, type 1b enzyme; assay type: biochemical, HCV BK strain (type 1b); conditions: HCV polymerase inhibitory activity (IC50), 1b, type 1b enzyme 0.5 μg/ml, 25° C., 60 min
T2 construct: a region encoding NS5B (J Virol 1991 March, 65(3), 1105-13, 544 amino acids after deletion of 47 amino acids on the C-terminal); 6xHis (C); made in house; host or cells: Escherichia coli
In short: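 NS5B from HCV BK strain (type 1b), C-terminal 47 aa deleted, C-terminal His6-tagged, E. coli-expressed, 0.5 μg/ml, with ~450 nt substrate RNA carrying the 3′ UTR (polyU, 3′X) at 5 μg/ml. Incubation 60 min at 25 °C with 50 μM ATP/GTP/CTP, 2 μM UTP plus [3H]UTP, pH 7.5 Tris.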

Q: How did the pIC50 [1] turn out when CCC(F)(F)c1ccc(CNC(=O)[C@H]2CN(C(=O)Cc3nnnn3C)CCN2S(=O)(=O)c2ccc(OC(F)(F)F)cc2)cc1 [Example 519, (R)-4-[2-(1-methyl-1H-tetrazol-5-yl)-acetyl]-1-(4-trifluoromethoxy-benzenesulfonyl)-piperazine-2-carboxylic acid 4-(1,1-difluoro-propyl)-benzylamide] was run?
A: The pIC50 was 6.00 to 7.00.

Q: What about the pIC50 [2] of the same molecule?
A: The pIC50 was 6.00 to 7.00.

Q: With CCC(F)(F)c1ccc(CNC(=O)[C@H]2CN(C(=O)c3cscn3)CCN2S(=O)(=O)c2ccc(OC(F)(F)F)cc2)cc1 [Example 520, (R)-4-(thiazole-4-carbonyl)-1-(4-trifluoromethoxy-benzenesulfonyl)-piperazine-2-carboxylic acid 4-(1,1-difluoro-propyl)-benzylamide] as the molecule, how does the pIC50 [1] read?
A: Its pIC50 is under 6.00.

Q: What about the pIC50 [2] of the same molecule?
A: The pIC50 was 6.00 to 7.00.

Q: With CCC(F)(F)c1ccc(CNC(=O)[C@H]2CN(C(=O)c3cc(C)on3)CCN2S(=O)(=O)c2ccc(OC(F)(F)F)cc2)cc1 [Example 521, (R)-4-(5-methyl-isoxazole-3-carbonyl)-1-(4-trifluoromethoxy-benzenesulfonyl)-piperazine-2-carboxylic acid 4-(1,1-difluoro-propyl)-benzylamide] as the molecule, how does the pIC50 [1] read?
A: The pIC50 was under 6.00.

Q: What about the pIC50 [2] of the same molecule?
A: The pIC50 was 6.00 to 7.00.

Q: How did the pIC50 [1] turn out when CCCc1ccc(CNC(=O)[C@H]2CN(c3cnc(C(=O)O)cn3)CCN2S(=O)(=O)c2ccc(CC)s2)cc1 [Example 522, (R)-4-(5-ethyl-thiophene-2-sulfonyl)-3-(4-propyl-benzylcarbamoyl)-3,4,5,6-tetrahydro-2H-[1,2′]bipyrazinyl-5′-carboxylic acid] was run?
A: Its pIC50 is over 7.00.

Q: What about the pIC50 [2] of the same molecule?
A: Its pIC50 is over 7.00.

Q: Which results are given for Cc1cc(N2CCN(S(=O)(=O)c3ccc(OC(F)(F)F)cc3)[C@@H](C(=O)NCc3ccc(C(C)C)cc3)C2)n[nH]1 [Example 523, (R)-4-(5-methyl-1H-pyrazol-3-yl)-1-(4-trifluoromethoxy-benzenesulfonyl)-piperazine-2-carboxylic acid 4-isopropyl-benzylamide]?
A: pIC50 [1]: 6.00 to 7.00; pIC50 [2]: 6.00 to 7.00

Q: How did the pIC50 [1] turn out when CCc1ccc(S(=O)(=O)N2CCN(c3cnc(C(=O)O)cn3)C[C@@H]2C(=O)NCc2ccc(C(C)(C)C)cc2)cc1 [Example 524, (R)-3-(4-tert-butyl-benzylcarbamoyl)-4-(4-ethyl-benzenesulfonyl)-3,4,5,6-tetrahydro-2H-[1,2′]bipyrazinyl-5′-carboxylic acid] was run?
A: The pIC50 was over 7.00.

Q: What about the pIC50 [2] of the same molecule?
A: Its pIC50 is over 7.00.

Q: CCC(F)(F)c1ccc(CNC(=O)[C@H]2CN(C(=O)Nc3cscn3)CCN2S(=O)(=O)c2ccc(OC(F)(F)F)cc2)cc1 [Example 525, (R)-4-(4-trifluoromethoxy-benzenesulfonyl)-piperazine-1,3-dicarboxylic acid 3-[4-(1,1-difluoro-propyl)-benzylamide] 1-thiazol-4-ylamide] was tested. Which pIC50 [1] did it give?
A: The pIC50 was over 7.00.

Q: What about the pIC50 [2] of the same molecule?
A: Its pIC50 is over 7.00.

Q: CCC(F)(F)c1ccc(CNC(=O)[C@H]2CN(C(=O)Nc3cc(C)on3)CCN2S(=O)(=O)c2ccc(OC(F)(F)F)cc2)cc1 [Example 526, (R)-4-(4-trifluoromethoxy-benzenesulfonyl)-piperazine-1,3-dicarboxylic acid 3-[4-(1,1-difluoro-propyl)-benzylamide] 1-[(5-methyl-isoxazol-3-yl)-amide]] was tested. Which pIC50 [1] did it give?
A: Its pIC50 is 6.00 to 7.00.

Q: And the pIC50 [2]?
A: Its pIC50 is 6.00 to 7.00.

Q: CCC(F)(F)c1ccc(CNC(=O)[C@H]2CN(C(=O)Nc3nc(C)ns3)CCN2S(=O)(=O)c2ccc(OC(F)(F)F)cc2)cc1 [Example 527, (R)-4-(4-trifluoromethoxy-benzenesulfonyl)-piperazine-1,3-dicarboxylic acid 3-[4-(1,1-difluoro-propyl)-benzylamide] 1-[(3-methyl-[1,2,4]thiadiazol-5-yl)-amide]] was tested. Which pIC50 [1] did it give?
A: Its pIC50 is 6.00 to 7.00.

Q: What about the pIC50 [2] of the same molecule?
A: Its pIC50 is 6.00 to 7.00.

Q: CCC(F)(F)c1ccc(CNC(=O)[C@H]2CN(C(=O)Nc3cc(C)no3)CCN2S(=O)(=O)c2ccc(OC(F)(F)F)cc2)cc1 [Example 528, (R)-4-(4-trifluoromethoxy-benzenesulfonyl)-piperazine-1,3-dicarboxylic acid 3-[4-(1,1-difluoro-propyl)-benzylamide] 1-[(3-methyl-isoxazol-5-yl)-amide]] was tested. Which pIC50 [1] did it give?
A: The pIC50 was 6.00 to 7.00.

Q: And the pIC50 [2]?
A: The pIC50 was over 7.00.

Q: CC(=O)N1CCN(S(=O)(=O)c2ccc(OC(F)(F)F)cc2)[C@@H](C(=O)NCc2ccc(C(C)(C)C)cc2)C1 [Example 529, (R)-4-acetyl-1-(4-trifluoromethoxy-benzenesulfonyl)-piperazine-2-carboxylic acid 4-tert-butyl-benzylamide] was tested. Which pIC50 [1] did it give?
A: The pIC50 was over 7.00.

Q: What about the pIC50 [2] of the same molecule?
A: Its pIC50 is over 7.00.

Q: How did the pIC50 [1] turn out when CCCc1ccc(CNC(=O)[C@H]2CN(c3cnc(N)cn3)CCN2S(=O)(=O)c2ccc(OC(F)(F)F)cc2)cc1 [Example 530, (R)-5′-amino-4-(4-trifluoromethoxy-benzenesulfonyl)-3,4,5,6-tetrahydro-2H-[1,2′]bipyrazinyl-3-carboxylic acid 4-propyl-benzylamide] was run?
A: Its pIC50 is 6.00 to 7.00.

Q: What about the pIC50 [2] of the same molecule?
A: The pIC50 was over 7.00.

Q: Which results are given for CCCc1ccc(CNC(=O)[C@H]2CN(c3nc(C)c(CN4CCCC4)s3)CCN2S(=O)(=O)c2ccc(OC(F)(F)F)cc2)cc1 [Example 531, (R)-4-(4-methyl-5-pyrrolidin-1-ylmethyl-thiazol-2-yl)-1-(4-trifluoromethoxy-benzenesulfonyl)-piperazine-2-carboxylic acid 4-propyl-benzylamide]?
A: pIC50 [1]: > 7.00; pIC50 [2]: > 7.00

Q: With CCOC(=O)Cn1nnc(CC(=O)N2CCN(S(=O)(=O)c3ccc(OC(F)(F)F)cc3)[C@@H](C(=O)NCc3ccc(C(F)(F)CC)cc3)C2)n1 [Example 532, (5-{2-[(R)-3-[4-(1,1-difluoro-propyl)-benzylcarbamoyl]-4-(4-trifluoromethoxy-benzenesulfonyl)-piperazin-1-yl]-2-oxo-ethyl}-tetrazol-2-yl)-acetic acid ethyl ester] as the molecule, how does the pIC50 [1] read?
A: The pIC50 was over 7.00.

Q: And the pIC50 [2]?
A: Its pIC50 is over 7.00.

Q: Which results are given for CCOC(=O)Cn1nnnc1CC(=O)N1CCN(S(=O)(=O)c2ccc(OC(F)(F)F)cc2)[C@@H](C(=O)NCc2ccc(C(F)(F)CC)cc2)C1 [Example 533, (5-{2-[(R)-3-[4-(1,1-difluoro-propyl)-benzylcarbamoyl]-4-(4-trifluoromethoxy-benzenesulfonyl)-piperazin-1-yl]-2-oxo-ethyl}-tetrazol-1-yl)-acetic acid ethyl ester]?
A: pIC50 [1]: < 6.00; pIC50 [2]: < 6.00

Q: CCCc1ccc(CNC(=O)[C@H]2CN(c3nc4c(s3)CN(C(=O)OCc3ccccc3)CC4)CCN2S(=O)(=O)c2ccc(OC(F)(F)F)cc2)cc1 [Example 534, 2-[(R)-3-(4-propyl-benzylcarbamoyl)-4-(4-trifluoromethoxy-benzenesulfonyl)-piperazin-1-yl]-6,7-dihydro-4H-thiazolo[5,4-c]pyridine-5-carboxylic acid benzyl ester] was tested. Which pIC50 [1] did it give?
A: Its pIC50 is over 7.00.

Q: And the pIC50 [2]?
A: The pIC50 was over 7.00.

Q: CCCc1ccc(S(=O)(=O)N2CCN(c3nc(C(=O)O)c(CO)s3)C[C@@H]2C(=O)NCc2ccc(C(C)C)cc2)cc1 [Example 535, 5-hydroxymethyl-2-[(R)-3-(4-isopropyl-benzylcarbamoyl)-4-(4-propyl-benzenesulfonyl)-piperazin-1-yl]-thiazole-4-carboxylic acid] was tested. Which pIC50 [1] did it give?
A: The pIC50 was over 7.00.

Q: What about the pIC50 [2] of the same molecule?
A: The pIC50 was over 7.00.

Q: How did the pIC50 [1] turn out when CCCc1ccc(CNC(=O)[C@H]2CN(c3nc(C(=O)O)c(COC)s3)CCN2S(=O)(=O)c2ccc(OC(F)(F)F)cc2)cc1 [Example 536, 5-methoxymethyl-2-[(R)-3-(4-propyl-benzylcarbamoyl)-4-(4-trifluoromethoxy-benzenesulfonyl)-piperazin-1-yl]-thiazole-4-carboxylic acid] was run?
A: Its pIC50 is 6.00 to 7.00.

Q: What about the pIC50 [2] of the same molecule?
A: The pIC50 was over 7.00.

Q: With CCCc1ccc(CNC(=O)[C@H]2CN(c3nc(C(=O)O)c(CO)s3)CCN2S(=O)(=O)c2ccc(OC(F)(F)F)cc2)cc1 [Example 537, 5-hydroxymethyl-2-[(R)-3-(4-propyl-benzylcarbamoyl)-4-(4-trifluoromethoxy-benzenesulfonyl)-piperazin-1-yl]-thiazole-4-carboxylic acid] as the molecule, how does the pIC50 [1] read?
A: Its pIC50 is over 7.00.

Q: What about the pIC50 [2] of the same molecule?
A: Its pIC50 is over 7.00.

Q: With CCCc1ccc(CNC(=O)[C@H]2CN(c3cnc(CN(C)C)cn3)CCN2S(=O)(=O)c2ccc(CC)cc2)cc1 [Example 538, (R)-5′-dimethylaminomethyl-4-(4-ethyl-benzenesulfonyl)-3,4,5,6-tetrahydro-2H-[1,2′]bipyrazinyl-3-carboxylic acid 4-propyl-benzylamide] as the molecule, how does the pIC50 [1] read?
A: Its pIC50 is over 7.00.

Q: And the pIC50 [2]?
A: Its pIC50 is over 7.00.

Q: CCC(F)(F)c1ccc(CNC(=O)[C@H]2CN(C(=O)Nn3cnnc3)CCN2S(=O)(=O)c2ccc(OC(F)(F)F)cc2)cc1 [Example 539, (R)-4-(4-trifluoromethoxy-benzenesulfonyl)-piperazine-1,3-dicarboxylic acid 3-[4-(1,1-difluoro-propyl)-benzylamide] 1-[1,2,4]triazol-4-ylamide] was tested. Which pIC50 [1] did it give?
A: The pIC50 was 6.00 to 7.00.

Q: And the pIC50 [2]?
A: Its pIC50 is 6.00 to 7.00.

Q: What does the source list for CCC(F)(F)c1ccc(CNC(=O)[C@H]2CN(C(=O)n3cnc(N)n3)CCN2S(=O)(=O)c2ccc(OC(F)(F)F)cc2)cc1 [Example 540, (R)-4-(3-amino-[1,2,4]triazole-1-carbonyl)-1-(4-trifluoromethoxy-benzenesulfonyl)-piperazine-2-carboxylic acid 4-(1,1-difluoro-propyl)-benzylamide]?
A: pIC50 [1]: < 6.00; pIC50 [2]: < 6.00
